The values that follow come from patent US11407765B2, “Tetracyclic heteroaryl compounds” (AstraZeneca AB, priority 2018, dated 2022).

Assay [1] addresses T1, KRasG12C (Homo sapiens, UniProt P01116, G12C).
T1 construct: biotin (biotinylated); made in house
Briefly: KRasG12C mass spectrometry adducting assay. The settings on record: 10 μM test compound, 4 μM GDP loaded KRasG12C, 4 hours. Format: binding. The method, then:
KRasG12C Mass Spectrometry Adducting Assay
Enzyme solutions were prepared in assay buffer containing 20 mM HEPES (pH 7.5), 5 mM MgCl2, and 150 mM NaCl. […] The plate was sealed before reading on a Xevo G2 QTOF (Waters) and Acquity LC system (Waters). 10 μl of sample was injected onto a Xbridge BEH300; C4; 3.5 um; 2.1×50 mm column (Waters) running a 3 minute gradient. Blank samples were run in between each test sample.
Data was analysed in Mass Lynx software (Waters), the Total ion count (TIC) trace was used and the eluted protein peak data combined. Using the combined spectrum the data was deconvoluted using MaxEnt1 method. The peak area for apo-protein KRas^G12C (APO) and KRAS+relative cmpd mass (adduct) were measured, and a percentage adduct was calculated using the following calculation: Percent adduct=100*(area of adduct peak/(sum of APO+adduct peaks)

Assay [2] deals with T1, KRasG12C. Briefly: KRasG12C functional assay (HTRF, SOS-mediated nucleotide exchange / Raf RBD binding). The class given is biochemical. The settings on record: 4 hrs incubation with GDP loaded biotinylated KRasG12C, single experiment or average of two or more. The method, then:
KRasG12C Functional Assay
All enzyme and substrate solutions were prepared in assay buffer containing 20 mM HEPES (pH 7.5), 5 mM MgCl2, 150 mM NaCl, and 0.01% Tween 20. […] In a separate mix 20 nM GST-Raf Ras binding domain (GST-Raf RBD, purified in house) and 4 μg/ml anti-GST XL665 antibody (Cisbio) was prepared in assay buffer containing 50 mM Potassium Fluoride and 0.05 mg/ml BSA and equilibrated for 4 hours before adding 0.6 μM Guanosine 5′-[γ-thio]triphosphate (GTPγS, Sigma) and 0.08 μM SOS (purified in house). 5 μl of the GST-RAF RBD mix was then dispensed into each well of the assay plate. […] This is detected simultaneously via the specific binding interaction between active GTPγS KRas^G12C with GST-Raf RBD which brings the europium and XL665 into close proximity enabling an increased FRET signal to be detected on a Pherastar (BMG) plate reader equipped with the HTRF filter module. […] IC50 values were calculated from normalised dose-response response FRET data curve fitted in Genedata screener (Basel, Switzerland).
For orientation: Time-resolved FRET reads energy transfer from a long-lived donor to a nearby acceptor.

The mark [3] stands for this setting: read-out: KRasG12C functional assay IC50 value.
Setting [4] is: KRasG12C functional assay IC50 value.

Structures are written as SMILES. Like-named read-outs stand apart in the source and are kept apart here.

T1 sequence (P01116 1-188 isoform P01116-2 G12C): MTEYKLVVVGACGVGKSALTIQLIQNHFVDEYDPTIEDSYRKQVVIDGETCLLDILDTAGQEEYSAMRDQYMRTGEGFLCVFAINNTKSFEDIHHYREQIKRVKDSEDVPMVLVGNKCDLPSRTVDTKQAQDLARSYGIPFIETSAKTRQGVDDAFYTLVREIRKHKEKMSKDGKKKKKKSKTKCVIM

What is called IC50 is the concentration at which inhibition is half-maximal. `C=CC(=O)N1CCN2c3ncnc4c(F)c(-c5c(C)ccc6c5C(=O)NC6)c(Cl)c(c34)OC[C@@H]2C1` (single isomer, unassigned) [Example 1]: the “KRasG12C M. S. Binding Mean adduct %” value in assay [1] is given as 98%. In addition, the IC50 in assay [2] (setting [3]) stood at 19 nM.

On to `C=CC(=O)N1CCN2c3ncnc4c(F)c(-c5c(C)ccc6c5C(=O)NC6)c(Cl)c(c34)OC[C@@H]2C1` (single isomer, unassigned) [Example 2], for which the “KRasG12C M. S. Binding Mean adduct %” value in assay [1] is given as 25%. In assay [2] (setting [3]), the IC50 is 290 nM.

`C=CC(=O)N1C[C@H]2COc3c(Cl)c(-c4c(O)cccc4F)c(F)c4ncnc(c34)N2C[C@H]1C` (single isomer, unassigned) [Example 5]: in assay [1], the “KRasG12C M. S. Binding Mean adduct %” value came out at 14%. Moreover, the IC50 in assay [2] (setting [3]) stood at 6350 nM.

In the case of `C=CC(=O)N1CCN2c3ncnc4c(F)c(-c5c(C)ccc6nc[nH]c(=O)c56)c(Cl)c(c34)OC[C@@H]2C1` (single isomer, unassigned) [Example 6], the “KRasG12C M. S. Binding Mean adduct %” value in assay [1] worked out at 95%. Further, in assay [2] (setting [3]), the IC50 came to 98 nM.

For the compound `C=CC(=O)N1CCN2c3ncnc4c(F)c(-c5c(C)ccc6nc[nH]c(=O)c56)c(Cl)c(c34)OC[C@@H]2C1` (single isomer, unassigned) [Example 7], the IC50 in assay [2] (setting [3]) is 7630 nM.

Regarding `C=CC(=O)N1CCN2c3ncnc4c(F)c(-c5c(C)ccc6[nH]cnc56)c(Cl)c(c34)OC[C@@H]2C1` (single isomer, unassigned) [Example 8], the “KRasG12C M. S. Binding Mean adduct %” value in assay [1] is reported as 96%. In addition, the IC50 in assay [2] (setting [3]) was found to be 12 nM.

With `C=CC(=O)N1CCN2c3ncnc4c(F)c(-c5c(C)ccc6[nH]cnc56)c(Cl)c(c34)OC[C@@H]2C1` (single isomer, unassigned) [Example 9], in assay [1], the “KRasG12C M. S. Binding Mean adduct %” value was 22%. Moreover, the IC50 in assay [2] (setting [3]) worked out at 230 nM.

In the case of `C=CC(=O)N1CCN2c3ncnc4c(F)c(-c5c(C)cccc5O)c(Cl)c(c34)OC[C@@H]2C1` (single isomer, unassigned) [Example 12], in assay [1], the “KRasG12C M. S. Binding Mean adduct %” value is listed as 95%. The IC50 in assay [2] (setting [3]) stood at 31 nM.

As for `C=CC(=O)N1CCN2c3ncnc4c(F)c(-c5c(C)cccc5O)c(Cl)c(c34)OC[C@@H]2C1` (single isomer, unassigned) [Example 13], in assay [2] (setting [3]), the IC50 came out at 9700 nM.

`CN(C)C/C=C/C(=O)N1CCN2c3ncnc4c(F)c(-c5c(O)cccc5F)c(Cl)c(c34)OC[C@@H]2C1` (single isomer, unassigned) [Example 14]: the “KRasG12C M. S. Binding Mean adduct %” value in assay [1] was 94%. In addition, the half-maximal inhibitory concentration (IC50) in assay [2] (setting [3]) was determined as 59 nM.

As for `CN(C)C/C=C/C(=O)N1CCN2c3ncnc4c(F)c(-c5c(O)cccc5F)c(Cl)c(c34)OC[C@@H]2C1` (single isomer, unassigned) [Example 15], the IC50 in assay [2] (setting [3]) was found to be 19700 nM.

Take `C=CC(=O)N1CCN2c3ncnc4c(F)c(-c5c(F)ccc6[nH]cnc56)c(Cl)c(c34)OC[C@@H]2C1` (single isomer, unassigned) [Example 21]: the half-inhibitory concentration (IC50) in assay [2] (setting [3]) was 1310 nM.

Turning to `C=CC(=O)N1CCN2c3ncnc4c(F)c(-c5c(F)ccc6[nH]ncc56)c(Cl)c(c34)OC[C@@H]2C1` (single isomer, unassigned) [Example 23], the concentration for half-maximal inhibition (IC50) in assay [2] (setting [3]) was found to be 8960 nM.

For `C=CC(=O)N1CCN2c3ncnc4c(F)c(-c5c(F)ccc6c5ncn6C)c(Cl)c(c34)OC[C@@H]2C1` (single isomer, unassigned) [Example 25], in assay [2] (setting [3]), the IC50 was 13900 nM.

Turning to `C=CC(=O)N1CCN2c3ncnc4c(F)c(-c5c(F)ccc6[nH]nnc56)c(Cl)c(c34)OC[C@@H]2C1` (single isomer, unassigned) [Example 27], the IC50 in assay [2] (setting [3]) was found to be 12000 nM.

On to `C=CC(=O)N1CCN2c3ncnc4c(F)c(-c5c(F)ccc6cc[nH]c(=O)c56)c(Cl)c(c34)OC[C@@H]2C1` (single isomer, unassigned) [Example 29], for which, in assay [2] (setting [3]), the IC50 was found to be 2860 nM.

As to `Cc1ccc2[nH]ncc2c1-c1c(Cl)c2c3c(ncnc3c1F)N1CCN(C(=O)/C=C/CN(C)C)C[C@H]1CO2` (single isomer, unassigned) [Example 31], the IC50 in assay [2] (setting [3]) was determined as 6830 nM.

Turning to `C=CC(=O)N1C[C@H]2CCOc3c(Cl)c(-c4c(O)cccc4F)c(F)c4ncnc(c34)N2C[C@@H]1C` (single isomer, unassigned) [Example 32], the IC50 in assay [2] (setting [4]) came to 3130 nM.

As to `C=CC(=O)N1C[C@H]2CCOc3c(Cl)c(-c4c(O)cccc4F)c(F)c4ncnc(c34)N2C[C@@H]1C` (single isomer, unassigned) [Example 33], the IC50 in assay [2] (setting [4]) stood at 229 nM.

As to `C=CC(=O)N1CCN2c3ncnc4c(F)c(-c5c(C)ccc6cc[nH]c(=O)c56)c(Cl)c(c34)OCCC2C1` (single isomer, unassigned) [Example 34, 8-[3-Chloro-1-fluoro-8-(prop-2-enoyl)-6,6a,7,8,9,10-hexahydro-5H-pyrazino[1′,2′:5,6][1,5]oxazocino[4,3,2-de]quinazolin-2-yl]-7-methylisoquinolin-1(2H)-one], the IC50 in assay [2] (setting [3]) turned out to be 1210 nM.

`C=CC(=O)N1CCN2c3ncnc4c(F)c(-c5c(C)ccc6cc[nH]c(=O)c56)c(Cl)c(c34)OCCC2C1` (single isomer, unassigned) [Example 35, 8-[3-Chloro-1-fluoro-8-(prop-2-enoyl)-6,6a,7,8,9,10-hexahydro-5H-pyrazino[1′,2′:5,6][1,5]oxazocino[4,3,2-de]quinazolin-2-yl]-7-methylisoquinolin-1(2H)-one]: the IC50 in assay [2] (setting [3]) was 8510 nM.

For `C=CC(=O)N1CCN2c3ncnc4c(F)c(-c5c(C)ccc6cc[nH]c(=O)c56)c(Cl)c(c34)OCCC2C1` (single isomer, unassigned) [Example 36, 8-[3-Chloro-1-fluoro-8-(prop-2-enoyl)-6,6a,7,8,9,10-hexahydro-5H-pyrazino[1′,2′:5,6][1,5]oxazocino[4,3,2-de]quinazolin-2-yl]-7-methylisoquinolin-1(2H)-one], the IC50 in assay [2] (setting [3]) was 2 nM.

On to `C=CC(=O)N1CCN2c3ncnc4c(F)c(-c5c(C)ccc6cc[nH]c(=O)c56)c(Cl)c(c34)OCCC2C1` (single isomer, unassigned) [Example 37, 8-[3-Chloro-1-fluoro-8-(prop-2-enoyl)-6,6a,7,8,9,10-hexahydro-5H-pyrazino[1′,2′:5,6][1,5]oxazocino[4,3,2-de]quinazolin-2-yl]-7-methylisoquinolin-1(2H)-one], for which the IC50 in assay [2] (setting [3]) was found to be 180 nM.

In assay [2] (setting [4]), `C=CC(=O)N1C[C@@H]2CCOc3c(Cl)c(-c4c(O)cccc4F)c(F)c4ncnc(c34)N2C[C@H]1C` (single isomer, unassigned) [Example 38] came in with an IC50 of 3650 nM.

`C=CC(=O)N1C[C@H]2CCOc3c(Cl)c(-c4c(O)cccc4F)c(F)c4ncnc(c34)N2C[C@H]1C` (single isomer, unassigned) [Example 40] had an IC50 in assay [2] (setting [4]) of 2540 nM.

In assay [2] (setting [4]), `C=CC(=O)N1C[C@H]2CCOc3c(Cl)c(-c4c(O)cccc4F)c(F)c4ncnc(c34)N2C[C@H]1C` (single isomer, unassigned) [Example 41] gave an IC50 of 674 nM.

The compound `C=CC(=O)N1C[C@@H]2CCOc3c(Cl)c(-c4c(O)cccc4F)c(F)c4ncnc(c34)N2C[C@@H]1C` (single isomer, unassigned) [Example 43] displayed an IC50 in assay [2] (setting [4]) of 2900 nM.

Consider `C=CC(=O)N1CCN2c3ncnc4c(Cl)c(-c5c(O)cccc5F)c(F)c(c34)OC[C@@H]2C1` (single isomer, unassigned) [Example 44], for which, in assay [2] (setting [3]), the IC50 came out at 62 nM.

Take `C=CC(=O)N1CCN2c3ncnc4c(Cl)c(-c5c(O)cccc5F)c(F)c(c34)OC[C@@H]2C1` (single isomer, unassigned) [Example 45]: the concentration for half-maximal inhibition (IC50) in assay [2] (setting [3]) was 89 nM.

With `C=CC(=O)N1C[C@H]2COc3c(Cl)c(-c4c(C)ccc5[nH]cnc45)c(F)c4ncnc(c34)N2C[C@H]1C` (single isomer, unassigned) [Example 46], the 50% inhibitory concentration (IC50) in assay [2] (setting [3]) is 59 nM.

`C=CC(=O)N1C[C@H]2COc3c(Cl)c(-c4c(C)ccc5[nH]cnc45)c(F)c4ncnc(c34)N2C[C@H]1C` (single isomer, unassigned) [Example 47]: the IC50 in assay [2] (setting [3]) amounted to 11200 nM.

With `C=CC(=O)N1C[C@H]2COc3c(Cl)c(-c4c(C)ccc5cc[nH]c(=O)c45)c(F)c4ncnc(c34)N2C[C@H]1C` (single isomer, unassigned) [Example 48], in assay [2] (setting [3]), the IC50 came out at 46 nM.

`C=CC(=O)N1C[C@H]2COc3c(Cl)c(-c4c(C)ccc5cc[nH]c(=O)c45)c(F)c4ncnc(c34)N2C[C@H]1C` (single isomer, unassigned) [Example 49]: in assay [2] (setting [3]), the IC50 was 30000 nM.

Regarding `Cc1ccc2[nH]cnc2c1-c1c(Cl)c2c3c(ncnc3c1F)N1C[C@@H](C)N(C(=O)/C=C/CN(C)C)C[C@H]1CO2` (single isomer, unassigned) [Example 50], the IC50 in assay [2] (setting [3]) is 140 nM.

In the case of `Cc1ccc2[nH]cnc2c1-c1c(Cl)c2c3c(ncnc3c1F)N1C[C@@H](C)N(C(=O)/C=C/CN(C)C)C[C@H]1CO2` (single isomer, unassigned) [Example 51], the IC50 in assay [2] (setting [3]) came out at 1750 nM.
